ChEMBL document CHEMBL4808177, “Use of Intramolecular 1,5-Sulfur-Oxygen and 1,5-Sulfur-Halogen Interactions in the Design of N-Methyl-5-aryl-N-(2,2,6,6-tetramethylpiperidin-4-yl)-1,3,4-thiadiazol-2-amine SMN2 Splicing Modulators” (J Med Chem, 2021)
In brackets after ≈: the same amount, converted by molar mass.

assay: Modulation of SMN2 splicing in myoblast cell line derived from the SMNdelta7 mouse model assessed as increase in SMN level measured as fold activation treated for 24 hrs by ELISA; assay type: functional, Primary myoblast; conditions: not given

Row | SMILES | EC50 [nM]
1 | CN(c1nnc(-c2cc3ccccc3s2)s1)C1CC(C)(C)NC(C)(C)C1 | 4470
2 | COc1cc(C#N)ccc1-c1nnc(N(C)C2CC(C)(C)NC(C)(C)C2)s1 | 1000
3 | CN(c1nnc(-c2cc(-n3cccn3)ccc2O)s1)C1CC(C)(C)NC(C)(C)C1 | 1000
4 | Cc1cc(-c2ccn(C)c(=O)c2)ccc1-c1nnc(N(C)C2CC(C)(C)NC(C)(C)C2)s1 | 1100
5 | CN(c1nnc(-c2ccc(-c3cnn(C)c3)cc2C(F)(F)F)s1)C1CC(C)(C)NC(C)(C)C1 | > 30000
6 | CN(c1nnc(-c2ccc(-n3cccn3)cc2O)s1)C1CC(C)(C)NC(C)(C)C1 | 170
7 | CN(c1nnc(-c2sc3ccccc3c2Cl)s1)C1CC(C)(C)NC(C)(C)C1 | 530
8 | CN(c1nnc(-c2ccc(-n3cccn3)cc2)s1)C1CC(C)(C)NC(C)(C)C1 | 1100
9 | COc1cc(-c2cn[nH]c2)ccc1-c1nnc(N(C)C2CC(C)(C)NC(C)(C)C2)s1 | 38
10 | COc1cc(-c2cnn(C)c2)ccc1-c1nnc(N(C)C2CC(C)(C)NC(C)(C)C2)s1 | 44
11 | CN(c1nnc(-c2ccc(-c3cnn(C)c3)cn2)s1)C1CC(C)(C)NC(C)(C)C1 | 680
12 | CN(c1nnc(-c2sc3ccc(C#N)cc3c2Cl)s1)C1CC(C)(C)NC(C)(C)C1 | 92
13 | CN(c1nnc(-c2cc3cc(C#N)ccc3s2)s1)C1CC(C)(C)NC(C)(C)C1 | 540
14 | COc1cc(-c2ccn(C)c(=O)c2)ccc1-c1nnc(N(C)C2CC(C)(C)NC(C)(C)C2)s1 | 130

assay: Intrinsic clearance in rat liver microsomes; assay type: ADME, Microsome; conditions: read-out: CLH

Row | SMILES | microsomal CLint [µL/min/mg]
15 | CN(c1ccc(-c2cc3ccccc3s2)nn1)C1CC(C)(C)NC(C)(C)C1 | 23
16 | CN(c1nnc(-c2cc3ccccc3s2)s1)C1CC(C)(C)NC(C)(C)C1 | < 3
17 | CN(c1nnc(-c2sc3ccccc3c2Cl)s1)C1CC(C)(C)NC(C)(C)C1 | 20
18 | CN(c1nnc(-c2sc3ccc(C#N)cc3c2Cl)s1)C1CC(C)(C)NC(C)(C)C1 | < 25
19 | CN(c1nnc(-c2cc3cc(C#N)ccc3s2)s1)C1CC(C)(C)NC(C)(C)C1 | 12

assay: Solubility of the compound at pH 6.8 by high-throughput miniaturized shake flask solubility assay; assay type: physicochemical; conditions: buffer

Row | SMILES | solubility thermodynamic [µM]
20 | CN(c1ccc(-c2cc3ccccc3s2)nn1)C1CC(C)(C)NC(C)(C)C1 | 980 (≈ 373 µg/mL)
21 | CN(c1nnc(-c2cc3ccccc3s2)s1)C1CC(C)(C)NC(C)(C)C1 | > 1000
22 | CN(c1nnc(-c2sc3ccccc3c2Cl)s1)C1CC(C)(C)NC(C)(C)C1 | 240 (≈ 101 µg/mL)
23 | CN(c1nnc(-c2sc3ccc(C#N)cc3c2Cl)s1)C1CC(C)(C)NC(C)(C)C1 | 51 (≈ 22.7 µg/mL)
24 | CN(c1nnc(-c2cc3cc(C#N)ccc3s2)s1)C1CC(C)(C)NC(C)(C)C1 | 170 (≈ 70 µg/mL)

assay: Modulation of SMN2 splicing activity in myoblast cell line derived from the SMNdelta7 mouse model assessed as increase in SMN level treated for 24 hrs by ELISA relative to control; assay type: functional, Primary myoblast; conditions: not given

Row | SMILES | fold change (FC)
25 | CN(c1nnc(-c2cc3ccccc3s2)s1)C1CC(C)(C)NC(C)(C)C1 | 1.7
26 | COc1cc(C#N)ccc1-c1nnc(N(C)C2CC(C)(C)NC(C)(C)C2)s1 | 2.2
27 | CN(c1nnc(-c2cc(-n3cccn3)ccc2O)s1)C1CC(C)(C)NC(C)(C)C1 | 2.3
28 | Cc1cc(-c2ccn(C)c(=O)c2)ccc1-c1nnc(N(C)C2CC(C)(C)NC(C)(C)C2)s1 | 2.6
29 | CN(c1nnc(-c2ccc(-c3cnn(C)c3)cc2C(F)(F)F)s1)C1CC(C)(C)NC(C)(C)C1 | 1.3
30 | CN(c1nnc(-c2ccc(-n3cccn3)cc2O)s1)C1CC(C)(C)NC(C)(C)C1 | 2.8
31 | CN(c1nnc(-c2sc3ccccc3c2Cl)s1)C1CC(C)(C)NC(C)(C)C1 | 2.8
32 | CN(c1nnc(-c2ccc(-n3cccn3)cc2)s1)C1CC(C)(C)NC(C)(C)C1 | 2.8
33 | COc1cc(-c2cn[nH]c2)ccc1-c1nnc(N(C)C2CC(C)(C)NC(C)(C)C2)s1 | 2.9
34 | COc1cc(-c2cnn(C)c2)ccc1-c1nnc(N(C)C2CC(C)(C)NC(C)(C)C2)s1 | 2.5
35 | CN(c1nnc(-c2ccc(-c3cnn(C)c3)cn2)s1)C1CC(C)(C)NC(C)(C)C1 | 2.3
36 | CN(c1nnc(-c2sc3ccc(C#N)cc3c2Cl)s1)C1CC(C)(C)NC(C)(C)C1 | 2.5
37 | CN(c1nnc(-c2cc3cc(C#N)ccc3s2)s1)C1CC(C)(C)NC(C)(C)C1 | 2.7
38 | COc1cc(-c2ccn(C)c(=O)c2)ccc1-c1nnc(N(C)C2CC(C)(C)NC(C)(C)C2)s1 | 3.2
